This is an account of results in patent publication EP4818158A1, “BIARYL COMPOUND” (Kissei Pharmaceutical Co., Ltd., priority 2023, dated 2025).

A value given as a limit tells only on which side of the number the result lay.

T1 sequence (P16473 21-764): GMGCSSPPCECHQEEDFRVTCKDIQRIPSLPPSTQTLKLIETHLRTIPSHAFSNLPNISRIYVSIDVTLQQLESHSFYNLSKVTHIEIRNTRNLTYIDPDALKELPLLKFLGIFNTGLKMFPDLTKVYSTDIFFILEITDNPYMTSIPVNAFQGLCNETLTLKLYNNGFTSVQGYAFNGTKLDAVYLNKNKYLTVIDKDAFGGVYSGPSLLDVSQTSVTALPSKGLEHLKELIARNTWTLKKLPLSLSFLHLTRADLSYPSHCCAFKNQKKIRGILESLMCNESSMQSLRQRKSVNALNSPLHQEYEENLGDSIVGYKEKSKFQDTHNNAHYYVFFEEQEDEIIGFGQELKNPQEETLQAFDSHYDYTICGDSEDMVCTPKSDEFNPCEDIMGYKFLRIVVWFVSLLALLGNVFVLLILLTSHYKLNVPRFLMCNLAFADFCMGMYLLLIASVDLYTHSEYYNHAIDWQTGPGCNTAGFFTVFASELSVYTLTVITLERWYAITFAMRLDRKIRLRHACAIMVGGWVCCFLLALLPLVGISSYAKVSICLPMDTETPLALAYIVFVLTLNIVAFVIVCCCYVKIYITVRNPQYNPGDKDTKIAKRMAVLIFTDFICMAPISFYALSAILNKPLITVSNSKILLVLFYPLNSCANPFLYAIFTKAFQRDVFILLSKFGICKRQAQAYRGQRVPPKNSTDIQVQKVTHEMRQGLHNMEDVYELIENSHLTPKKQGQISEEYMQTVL

The first assay concerns the target T1, human TSHR (Homo sapiens, UniProt P16473).
T1 construct: expressed in transfected cells
The assay is described as follows: Antagonist activity using TSH-induced cAMP generation in human TSHR-stably expressing CHO cells. It counts as cell-based. The following applies: human TSH 50 ng/mL. As for the experimental part:
Measurement of antagonist activity using TSH-induced cAMP generation in human TSHR-stably expressing CHO cells as an indicator
The gene sequence (reference number: NM_000369.2) of a human TSHR was inserted into multiple cloning sites of pcDNA3.1 (+). Prepared plasmid vectors were introduced into CHO cells using a lipofection method, and human TSHR-stably expressing CHO cells were established. Obtained cells were seeded in a 96-well poly-D-lysine-coated plate at 5 × 10^4 cells/well and cultured in an F12 culture medium containing 10%FBS, 400 µg/mL of G418, 50 U/mL of penicillin, and 50 µg/mL of streptomycin under conditions of 37°C and 5% CO2 for one day. After the culture medium was removed, the cells were washed twice with 100 µL of an assay buffer solution (Hanks' Balanced Salt Solution containing 20 mM HEPES and 1 mM IBMX) per well. 30 µL of a test compound-containing assay buffer solution was added to the well and incubated at room temperature for 15 minutes. Next, 30 µL of an assay buffer solution containing human TSH (final concentration: 50 ng/mL, R&D Systems, Inc.) was added thereto and incubated at 37°C for one hour. A supernatant was removed, a Lysis and Detection Buffer 2(Cisbio) was added thereto, and the mixture was incubated at room temperature for one hour to prepare a cell lysate. According to the instruction manual of a cAMP Gs HiRange kit (Cisbio), the cell lysate, d2-labeled cAMP, and anti-cAMP Europium Cryptate labeled antibodies (Cisbio) were reacted together in a 384-well white microplate. Next, fluorescence intensity ratios (measurement wavelengths: 665 nm/620 nm) were measured using a multi-plate reader (PHERAstar FSX, BMG LABTECH, Japan). The fluorescence intensity ratio of each sample was converted to a cAMP content using a standard curve. The cAMP content was converted as a percentage of the control value to calculate a cAMP generation rate. The cAMP generation rates were plotted against the test compound concentrations using Prism (Graph Pad Software Inc.) to calculate IC50 values. The IC50's of the individual test compounds are shown in the above tables. In the tables, IC50 < 0.3 µM was denoted as A, and 0.3 µM ≤ IC50 < 30 µM was denoted as B. Cases where the IC50 values were not calculated for test compounds from which activity was recognized are denoted as C.
In general, IC50 refers to the point on the concentration scale where inhibition reaches its midpoint. Consider `CC(C)(C)OC(=O)Nc1ccc(-c2cccnc2CNC(N)=O)c(Cc2c(F)cccc2C#N)c1F` [Example A-3, tert-Butyl (3-(2-cyano-6-fluorobenzyl)-2-fluoro-4-(2-(ureidomethyl)pyridin-3-yl)phenyl)carbamate], for which the IC50 was in the range of 300 to 30000 nM.

`Cc1ccccc1C(=O)c1c(-c2cccnc2CNC(N)=O)ccc(NC(=O)OC(C)(C)C)c1F` [Example E-1, tert-Butyl (2-fluoro-3-(2-methylbenzoyl)-4-(2-(ureidomethyl)pyridin-3-yl)phenyl)carbamate] showed an IC50 below 300 nM.

For `CC(C)(C)OC(=O)Nc1ccc(-c2ccnnc2CNC(N)=O)c(Oc2ccccc2F)c1F` [Example D-1, tert-Butyl (2-fluoro-3-(2-fluorophenoxy)-4-(3-(ureidomethyl)pyridazin-4-yl)phenyl)carbamate], the IC50 was 300 to 30000 nM.

Regarding `CC(C)(C)OC(=O)Nc1ccc(-c2cccnc2CCC(N)=O)c(Oc2ccccc2F)c1F` [Example B-6, tert-Butyl (4-(2-(3-amino-3-oxopropyl)pyridin-3-yl)-2-fluoro-3-(2-fluorophenoxy)phenyl)carbamate], the IC50 was below 300 nM.

In turn, `CC(C)(C)OC(=O)Nc1ccc(-c2ccnnc2CCC(N)=O)c(Oc2ccccc2F)c1F` [Example D-3, tert-Butyl (4-(3-(3-amino-3-oxopropyl)pyridazin-4-yl)-2-fluoro-3-(2-fluorophenoxy)phenyl)carbamate] came in with an IC50 below 300 nM.

In turn, `CC(C)(C)OC(=O)Nc1ccc(-c2cccnc2CNC(N)=O)c(CN2CCCC(F)(F)C2)c1F` [Example F-6, tert-Butyl (3-((3,3-difluoropiperidin-1-yl)methyl)-2-fluoro-4-(2-(ureidomethyl)pyridin-3-yl)phenyl)carbamate] yielded an IC50 of 300 to 30000 nM.

Compound `NC(=O)NCc1ncccc1-c1ccc(NC(=O)N2CC3(CCC3)C2)c(F)c1Cc1ccccc1F` [Example G-7, N-(2-Fluoro-3-(2-fluorobenzyl)-4-(2-(ureidomethyl)pyridin-3-yl)phenyl)-2-azaspiro[3.3]heptane-2-carboxamide] showed an IC50 below 300 nM.

Regarding `NC(=O)NCc1ncccc1-c1ccc(NC(=O)OCc2ccccc2F)c(F)c1Cc1ccccc1F` [Example A-36], the IC50 is below 300 nM.

In turn, `Cc1cnc(CNC(N)=O)c(-c2ccc(NC(=O)OC(C)(C)C)c(F)c2Cc2ccccc2F)c1` [Example A-10, tert-Butyl (2-fluoro-3-(2-fluorobenzyl)-4-(5-methyl-2-(ureidomethyl)pyridin-3-yl)phenyl)carbamate] came in with an IC50 of 300 to 30000 nM.

`C[C@@H](OC(=O)Nc1ccc(-c2cccnc2CNC(N)=O)c(Cc2ccccc2F)c1F)C(F)(F)F` [Example A-24] had an IC50 below 300 nM.

`NC(=O)NCc1ncccc1-c1ccc(NC(=O)N2CCCC2)c(F)c1Cc1ccccc1F` [Example G-6] displayed an IC50 of 300 to 30000 nM.

For the compound `NC(=O)NCc1ncccc1-c1ccc(NC(=O)OC2CC2)c(F)c1Cc1ccccc1F` [Example A-26, Cyclopropyl (2-fluoro-3-(2-fluorobenzyl)-4-(2-(ureidomethyl)pyridin-3-yl)phenyl)carbamate], the IC50 was 300 to 30000 nM.

Compound `C[C@H](OC(=O)Nc1ccc(-c2ccnnc2CCC(N)=O)c(Cc2ccccc2F)c1F)C(F)(F)F` [Example C-5, (S)-1,1,1-Trifluoropropan-2-yl (4-(3-(3-amino-3-oxopropyl)pyridazin-4-yl)-2-fluoro-3-(2-fluorobenzyl)phenyl)carbamate] yielded an IC50 below 300 nM.

The compound `CC(C)(C)OC(=O)Nc1ccc(-c2cccnc2CNC(N)=O)c(Oc2ccccc2)c1F` [Example B-1, tert-Butyl (2-fluoro-3-phenoxy-4-(2-(ureidomethyl)pyridin-3-yl)phenyl)carbamate] came in with an IC50 below 300 nM.

In the case of `CC(c1ccccc1)c1cc(NC(=O)OC(C)(C)C)ccc1-c1cccnc1CCC(N)=O` (stereo not shown) [Example A-12, tert-Butyl (4-(2-(3-amino-3-oxopropyl)pyridine-3-yl)-3-(1-phenylethyl)phenyl)carbamate], the IC50 was 300 to 30000 nM.

Compound `NC(=O)NCc1ncccc1-c1ccc(NC(=O)OCC2CC2(F)F)c(F)c1Cc1ccccc1F` (stereo not shown) [Example A-33] returned an IC50 below 300 nM.

Compound `C[C@H](OC(=O)Nc1ccc(-c2ccnnc2CCC(N)=O)c(Oc2ccccc2F)c1F)C(F)(F)F` [Example D-4, (S)-1,1,1-Trifluoropropan-2-yl (4-(3-(3-amino-3-oxopropyl)pyridazin-4-yl)-2-fluoro-3-(2-fluorophenoxy)phenyl)carbamate] yielded an IC50 below 300 nM.

`CC(C)OC(=O)Nc1ccc(-c2cccnc2CNC(N)=O)c(Cc2ccccc2F)c1F` [Example A-22]: the IC50 was below 300 nM.

Regarding `COc1ccccc1Cc1c(-c2cccnc2CNC(N)=O)ccc(NC(=O)OC(C)(C)C)c1F` [Example A-17, tert-Butyl (2-fluoro-3-(2-methoxybenzyl)-4-(2-(ureidomethyl)pyridin-3-yl)phenyl)carbamate], the half-maximal inhibitory concentration (IC50) was in the range of 300 to 30000 nM.

As for `NC(=O)CCc1ncccc1-c1ccc(NC(=O)OCC2CC(F)(F)C2)c(F)c1C(=O)c1ccccc1F` [Example E-7], the IC50 was below 300 nM.

The compound `NC(=O)NCc1ncccc1-c1ccc(NC(=O)OC2CC(F)(F)C2)c(F)c1Oc1ccccc1F` [Example B-5] registered an IC50 of 300 to 30000 nM.

`Cc1c(NC(=O)OC(C)(C)C)ccc(-c2cccnc2CNC(N)=O)c1Cc1ccccc1F` [Example A-13, tert-Butyl (3-(2-fluorobenzyl)-2-methyl-4-(2-(ureidomethyl)pyridin-3-yl)phenyl)carbamate]: the IC50 is below 300 nM.

In the case of `CC1(OC(=O)Nc2ccc(-c3ccnnc3CNC(N)=O)c(Cc3ccccc3F)c2F)CC1` [Example C-3, 1-Methylcyclopropyl (2-fluoro-3-(2-fluorobenzyl)-4-(3-(ureidomethyl)pyridazin-4-yl)phenyl)carbamate], the IC50 lay in the range of 300 to 30000 nM.

In turn, `NC(=O)CCc1nnccc1-c1ccc(NC(=O)OC2CC(F)(F)C2)c(F)c1Cc1ccccc1F` [Example C-8] displayed a concentration for half-maximal inhibition (IC50) below 300 nM.

Compound `NC(=O)NCc1ncccc1-c1ccc(NC(=O)O[C@H]2C[C@H](F)C2)c(F)c1Cc1ccccc1F` [Example A-5, trans-3-Fluorocyclobutyl (2-fluoro-3-(2-fluorobenzyl)-4-(2-(ureidomethyl)pyridin-3-yl)phenyl)carbamate] showed an IC50 below 300 nM.

In the case of `CC(C)(C)OC(=O)Nc1ccc(-c2cccnc2CNC(N)=O)c(Cc2ccccc2O)c1F` [Example A-19, tert-Butyl (2-fluoro-3-(2-hydroxybenzyl)-4-(2-(ureidomethyl)pyridin-3-yl)phenyl)carbamate], the IC50 was below 300 nM.

Regarding `C[C@H](OC(=O)Nc1ccc(-c2ccnnc2CNC(N)=O)c(Oc2ccccc2F)c1F)C(F)(F)F` [Example D-2, (S)-1,1,1-Trifluoropropan-2-yl (2-fluoro-3-(2-fluorophenoxy)-4-(3-(ureidomethyl)pyridazin-4-yl)phenyl)carbamate], the IC50 was 300 to 30000 nM.

Turning to `CC(C)(C)OC(=O)Nc1ccc(-c2cccnc2CCC(N)=O)c(C(=O)c2ccccc2C(F)(F)F)c1F` [Example E-8, tert-Butyl (4-(2-(3-amino-3-oxopropyl)pyridin-3-yl)-2-fluoro-3-(2-(trifluoromethyl)benzoyl)phenyl)carbamate], the IC50 is below 300 nM.

For `CC(C)(C)OC(=O)Nc1ccc(-c2cccnc2CNC(N)=O)c(Cc2cccc(F)c2)c1F` [Example A-15], the IC50 lay within 300 to 30000 nM.

A further assay deals with T2, TSHR (Mus musculus, UniProt P47750).
T2 construct: host or cells: mice in vivo (endogenous thyroid TSHR)
T2 sequence (P47750 22-764): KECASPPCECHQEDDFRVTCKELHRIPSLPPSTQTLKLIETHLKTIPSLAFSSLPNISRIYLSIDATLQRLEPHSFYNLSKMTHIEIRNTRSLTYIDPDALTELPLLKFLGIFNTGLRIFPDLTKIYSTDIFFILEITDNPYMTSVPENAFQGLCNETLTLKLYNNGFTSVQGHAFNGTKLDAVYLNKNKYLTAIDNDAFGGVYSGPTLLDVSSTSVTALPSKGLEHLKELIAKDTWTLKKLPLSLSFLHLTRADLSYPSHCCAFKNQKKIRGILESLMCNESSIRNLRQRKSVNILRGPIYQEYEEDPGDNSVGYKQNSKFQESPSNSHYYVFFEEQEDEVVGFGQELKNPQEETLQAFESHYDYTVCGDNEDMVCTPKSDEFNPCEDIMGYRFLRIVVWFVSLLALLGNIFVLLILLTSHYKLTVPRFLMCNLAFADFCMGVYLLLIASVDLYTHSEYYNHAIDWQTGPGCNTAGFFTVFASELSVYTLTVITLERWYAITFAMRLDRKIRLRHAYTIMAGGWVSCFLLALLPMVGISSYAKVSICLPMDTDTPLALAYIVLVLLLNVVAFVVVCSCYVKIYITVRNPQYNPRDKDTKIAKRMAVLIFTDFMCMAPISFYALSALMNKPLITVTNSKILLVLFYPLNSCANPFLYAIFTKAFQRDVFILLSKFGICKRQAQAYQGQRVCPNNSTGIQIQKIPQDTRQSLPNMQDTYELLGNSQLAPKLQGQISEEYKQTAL
Test: not given
The following applies: TSH-releasing hormone (TRH)-treated mice; cited from earlier work.
Consider `COc1ccc(C2Nc3ccccc3C(=O)N2Cc2ccco2)cc1COc1c(C)cc(NC(C)=O)cc1C` (stereo not shown) [NCGC00242364], for which the “blood T4 concentration” value is “blood T4 concentration lowering effect”.

Staying with this assay, now noted: thyroid stimulating antibody M22-treated mice; cited from earlier work.
For the compound `COc1ccc(C2Nc3ccccc3C(=O)N2Cc2ccco2)cc1COc1c(C)cc(NC(C)=O)cc1C` (stereo not shown) [NCGC00242364], the “blood T4 concentration” value is “blood T4 concentration lowering effect”.
